The values below are quoted from earlier work in US5607940A (priority 1994, dated 1997).

The conditions of data set [1]: silver anode; listed as MHCl, hydrochloride.
The conditions of data set [2]: in vivo.

As for `CN1CC[C@]23c4c5ccc(O)c4O[C@H]2[C@@H](O)C=C[C@H]3[C@H]1C5.Cl` [morphine hydrochloride], the utilization of morphine result in data set [1] is “about 10%”.

As for `CN1CC[C@]23c4c5ccc(O)c4O[C@H]2[C@@H](O)C=C[C@H]3[C@H]1C5` [morphine], the “time to clinically effective blood levels” value in data set [2] is 15 to 20 min.
